Measured values published in article doi:10.1101/2020.01.06.895540v1 (biorxiv, 2020).
pEC50: −log10 of the molar value.

Experiments:
Experiment in all cases: cell-based
Design in all cases: species or system Hana3A
[1] = molecular target: T1, hOR11H12 (Homo sapiens, UniProt B2RN74)
T1 sequence (B2RN74 1-326): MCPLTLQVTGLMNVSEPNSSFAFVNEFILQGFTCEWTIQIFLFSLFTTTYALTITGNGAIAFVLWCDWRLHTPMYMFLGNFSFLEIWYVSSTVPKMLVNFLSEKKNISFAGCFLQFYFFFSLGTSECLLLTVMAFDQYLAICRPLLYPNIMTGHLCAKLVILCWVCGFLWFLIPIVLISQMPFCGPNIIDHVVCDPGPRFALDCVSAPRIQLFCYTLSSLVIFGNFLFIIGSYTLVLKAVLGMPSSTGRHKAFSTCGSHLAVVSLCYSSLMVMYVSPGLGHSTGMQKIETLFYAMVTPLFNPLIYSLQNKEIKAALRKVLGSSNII

[2] = molecular target: T2, hOR8B2 (Homo sapiens, UniProt Q96RD0)
T2 sequence (Q96RD0 1-313): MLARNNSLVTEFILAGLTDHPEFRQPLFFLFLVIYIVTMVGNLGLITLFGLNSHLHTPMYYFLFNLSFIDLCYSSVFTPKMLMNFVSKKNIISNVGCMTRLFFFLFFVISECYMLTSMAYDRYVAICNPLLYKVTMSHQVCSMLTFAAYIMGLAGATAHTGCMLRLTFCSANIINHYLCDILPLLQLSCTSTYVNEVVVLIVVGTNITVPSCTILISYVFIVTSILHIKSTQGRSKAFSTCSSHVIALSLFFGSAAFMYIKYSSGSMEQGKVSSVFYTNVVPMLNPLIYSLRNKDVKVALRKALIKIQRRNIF

[3] = molecular target: T3, hOR5R1 (Homo sapiens, UniProt Q8NH85)
T3 sequence (Q8NH85 1-324): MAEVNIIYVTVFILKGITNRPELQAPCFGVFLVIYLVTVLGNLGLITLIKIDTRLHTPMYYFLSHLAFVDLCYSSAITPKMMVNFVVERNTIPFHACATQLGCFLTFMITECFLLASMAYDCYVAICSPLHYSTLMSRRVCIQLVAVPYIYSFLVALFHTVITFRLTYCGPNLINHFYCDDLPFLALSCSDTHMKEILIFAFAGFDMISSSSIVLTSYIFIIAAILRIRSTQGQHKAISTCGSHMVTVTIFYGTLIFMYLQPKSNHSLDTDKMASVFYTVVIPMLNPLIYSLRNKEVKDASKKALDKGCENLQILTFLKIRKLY

[4] = molecular target: T4, hOR8K5 (Homo sapiens, UniProt Q8NH50)
T4 sequence (Q8NH50 1-307): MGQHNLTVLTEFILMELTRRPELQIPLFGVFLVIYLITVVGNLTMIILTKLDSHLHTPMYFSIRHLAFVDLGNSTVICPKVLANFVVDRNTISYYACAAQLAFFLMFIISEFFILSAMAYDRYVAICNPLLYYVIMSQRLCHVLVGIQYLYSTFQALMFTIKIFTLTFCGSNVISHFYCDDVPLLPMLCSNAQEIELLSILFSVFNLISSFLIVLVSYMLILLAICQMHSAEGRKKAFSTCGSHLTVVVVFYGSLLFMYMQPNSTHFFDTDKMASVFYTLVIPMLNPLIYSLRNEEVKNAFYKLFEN

A pEC50 [1] of under 3.00, a pEC50 [2] of 4.82 and a pEC50 [3] of 3.66 were found for `O=C1CCOc2ccccc21` [4-chromanone] in this work. The pEC50 [4] was under 3.00.
A pEC50 [1] of 4.79, a pEC50 [2] of under 3.00 and a pEC50 [3] of 4.92 were found for `C=C(C)[C@@H]1CC=C(C)C(=O)C1` [R-carvone] in this work. The pEC50 [4] was 5.35.
A pEC50 [1] of 5.33, a pEC50 [2] of under 3.00 and a pEC50 [3] of 5.47 were found for `CC(=O)c1ccccc1` [acetophenone] in this work. It also gave a pEC50 [4] of under 3.00.
A pEC50 [1] of 4.04, a pEC50 [2] of under 3.00 and a pEC50 [3] of 4.99 were found for `O=c1ccc2ccccc2o1` [coumarin] in this work. It also gave a pEC50 [4] of under 3.00.
